Results on six compounds are retold here after US20100075894A1, “REDUCING ER STRESS IN THE TREATMENT OF OBESITY AND DIABETES” (HARVARD UNIVERSITY, priority 2004, published 2010).

“Also recorded” adds a separate entry of the source.

The subject of experiment [1] is ob/ob mice. The experiment is described as follows: 4-PBA in ob/ob mice: blood glucose, insulin tolerance test. It is filed as in vivo, mouse. The note with it: for blood glucose levels / insulin sensitivity in vivo: ob/ob mice. The protocol:
A genetic (ob/ob) model of mouse obesity was used to analyze the effects of 4-phenyl butyrate (4-PBA) on insulin sensitivity and hyperglycemia. 10-12 weeks old, male, leptin deficient mice were obtained from Jackson Labs, acclimated by three times injection of PBS (3 times a day) for 4 days, and treated either with intraperitoneal injection of 4-PBA (1 g/kg/day in three divided doses) or phosphate buffer saline (PBS) (3 doses of 100 μl) for a period of 7 days. Fed blood glucose levels (mg/dl) at the 3rd and 7th days of trial (a). Insulin Tolerance Test (ITT) were performed on the 7th day after the first injection (b).
A genetic (ob/ob) model of mouse obesity was used to analyze the effects to 4-phenyl butyrate (4-PBA) on insulin sensitivity and hyperglycemia. 8-10 weeks old, male, leptin deficient mice were obtained from Jackson Labs, acclimated by PBS injection (2 times a day) for 4 days, and treated either with 4-PBA (500 mg/kg/day in two divided doses) or phosphate buffer saline (PBS) (2 doses of 200 μl) for a period of 20 days. Body weight during the treatment period (a). Blood glucose levels (mg/dl) after 6 hours of fasting at day 0 and day 20 (b). Insulin (ng/ml) levels at day 0 and day 20 (c). Insulin tolerance tests were performed at the 15th day of the treatment (d).
Animal Studies and Obesity Models: Adult (10-12 weeks of age) male ob/ob mice and their wild type (WT) littermates were purchased from Jackson Labs. Mice used in the diet-induced obesity model were male C57BL/6. All mice were placed on high fat diet (HFD: 35.5% fat, 20% protein, 32.7% carbohydrates, Bio-Serve) immediately after weaning (at ˜3 weeks of age). The XBP-1^+/− and XBP-1^+/+ mice were on Balb/C genetic background. Insulin and glucose tolerance tests were performed as previously described (Hirosumi et al., Nature 420:333 (2002); incorporated herein by reference). Insulin and C-peptide ELISA were performed according to manufacturer's instructions using mouse standards (Crystal Chem. Inc., Downers Grove, Ill.). Pancreas isolated from 16-week-old mice was fixed in Bouin's fluid and formalin, and paraffin sections were double-stained with guinea pig anti-insulin and rabbit anti-glucagon antibodies. Texas red dye conjugated donkey anti-guinea pig IgG and FITC conjugated Goat anti-rabbit IgG were used as secondary antibodies.

Experiment [2] concerns insulin receptor signaling. The experiment is described as follows: insulin receptor signaling in animals after treatment. It is filed as in vivo. The note with it: for serine phosphorylation of Akt / tyrosine phosphorylation of insulin receptor, insulin substrate 1-IRS-1 and IRS-1: animals; for insulin (receptor) signaling: overall statement. From the text: (§1) For example, obesity increases the demand on the synthetic machinery of the cell in many secretory organ systems and is also associated with abnormalities in intracellular energy fluxes and nutrient availability. The present invention stems from the recognition that many of these diseases associated with obesity cause ER stress, particularly in peripheral tissues, and that ER stress is involved in triggering insulin resistance and type 2 diabetes, two sequelae of obesity. […] The agents useful in the treatment of these diseases include small molecules, proteins, nucleic acids, and any other chemical compounds known to reduce or prevent ER stress. These agents make act in any manner that reduces or prevents ER stress such as reducing the production of mutant or misfolded proteins, increasing the expression of ER chaperones, increasing the stability of proteins, boosting the processing capacity of the ER, etc. Particularly useful agents include chemical chaperones such as 4-phenyl butyrate (PBA), tauroursodeoxycholic acid (TUDCA), trimethylamine N-oxide (TMAO), glycerol, D2O, dimethylsufloxide, glycine betaine, methyl amines, and glycerophosphocholine. […] The agents may be administered in any manner known in the drug delivery art although preferably the agent is delivered orally or parenterally. Dose ranges for these agents depend on the agent being delivered as well as other factors but will typically be from 10 mg/kg/day to 10 g/kg/day.

Another experiment concerns ER stress. The experiment is described as follows: ER stress markers in animals, western blot after treatment with the compound. In kind it is in vivo. The note with it: for activation of JNK / phosphorylation of IRE-1α / phosphorylation of PERK: animals treated with the compound, western blot; for ER stress: overall statement.
Excerpt: as §1
Background: Immunoblotting shows a protein as a band on a membrane.

A further experiment concerns JNK. The experiment in a line: JNK activity in liver tissue of obese mice after PBA. In kind it is in vivo, mouse. The settings on record: FIG. 21.
The subject of experiment [3] is ob/ob mice. The experiment is described as follows: TMAO in ob/ob mice: fed blood glucose, serum insulin. In kind it is in vivo, mouse. The protocol: Experiments were performed using the ob/ob genetic model of obesity and insulin resistance (C57BL/6J-Lep-ob mice purchased from Jackson Laboratory, Bar Harbor, Me.). At seven weeks of age, treatments were started after acclimatization for 5 days by administration of PBS. After this period, TMAO (Sigma, T0514) was dissolved in PBS and administered by intraperitoneal (IP) injection every 24 hours at a dose of 1 g/kg/day. At the indicated days, fed blood glucose levels were measured at 8:00 AM using an automated glucometer system. For insulin measurements, blood samples were collected after 6 hours of fasting and serum insulin levels were determined using a specific ELISA (Crystal Chem, 90060). Each treatment group contained at least six animals per experimental group.

In experiment [4] the test system is ob/ob mice. The experiment in a line: sodium 4-phenylbutyrate and metformin in ob/ob mice: fed blood glucose. The note with it: oral gavage daily, 200 mg/kg/day (each), fed state. It is filed as in vivo, mouse. The protocol: Experiments are performed using the ob/ob genetic model of obesity and insulin resistance (C57B6. V-Lepob/OlaHsd mice were purchased from Harlan Teklad, Madison, Wis.). At seven weeks of age, treatments were started after acclimatization for 5 days by administration of PBS. After this period, PBS, sodium 4-phenylbutyrate (200 mg/kg/day), metformin (200 mg/kg/day), and sodium 4-phenylbutyrate plus metformin (200 mg/kg/day each) were administered into four separate experimental groups of mice (with at least six mice in each group) by oral gavage daily. […] Blood glucose levels were measured at the fed state at 8:00 AM.

Experiment [5] relates to ob/ob mice. The experiment in a line: TUDCA in ob/ob mice: blood glucose, ITT. In kind it is in vivo, mouse. The protocol: 9-10 weeks old ob/ob and their age and sex matched lean controls were used to analyze the effects of TUDCA on glucose metabolism and diabetes. After acclimation with PBS injection (once a day, 200 μl i.p. injection) for 4 days, mice were injected intraperitoneally with TUDCA (500 mg/kg once a day in 200 μl of PBS) (n=6 for lean and n=7 for ob/ob) and PBS (200 μl) (n=6 lean and n=7 for ob/ob). Blood glucose levels on the 4th, 7th, and 10th days after first injection (a). ITT on 10 days after the first injection (b).

The next experiment relates to Fao liver cells. The experiment in a line: ER stress inducers and insulin action in Fao liver cells. The settings on record: Fao cells, FIG. 12A. It is filed as cell-based, rat. The protocol: (A) ER stress was induced in Fao liver cells by a 3-hour treatment with 5 μg/ml tunicamycin (Tun). Cells were subsequently stimulated with insulin (Ins). IRS-1 tyrosine and serine (Ser307) phosphorylation, Akt phosphorylation (Ser473), insulin receptor (IR) tyrosine phosphorylation, and their total protein levels were examined using either immunoprecipitation (IP) followed by immunoblotting (IB) or direct immunoblotting. (B) Quantitation of IRS-1 (tyrosine and Ser307), Akt (Ser473), and IR (tyrosine) phosphorylation under the experimental conditions described in (A) with normalization to protein levels for each molecule. (C) Inhibition of ER stress-induced (300 nM thapsigargin for 4 hours) Ser307 phosphorylation of IRS-1 by JNK-1 inhibitor, SP600125 (JNKi, 25 μM), (D) Quantitation of IRS-1 Ser307 phosphorylation under conditions described in (C). (E) Reversal of ER stress-induced inhibition of insulin-stimulated tyrosine phosphorylation (pY) of IRS-1 by a JNK inhibitor. (F) Quantitation of insulin-induced IRS-1 tyrosine phosphorylation levels described in (E). (G) JNK activity, Ser307 phosphorylation of IRS-1, and total IRS-1 levels at indicated times following tunicamycin treatment (Tun, 10 μg/ml for 1 hour) in IRE-1α^+/+ and IRE-1α^−/− fibroblasts. (H) Insulin-stimulated IRS-1 tyrosine phosphorylation and total IRS-1 levels following tunicamycin treatment (Tun, 10 μg/ml for 1 hour) in IRE-1α^+/+ and IRE-1α^−/− fibroblasts. […] All graphs show mean±SEM from at least 2 independent experiments and statistical significance from the controls is indicated by * with p<0.005.
(A) ER stress was induced in Fao cells by 1 hour treatment with 300 nM thapsigargin (Thap), and cells were subsequently stimulated with insulin (Ins). IRS-1 tyrosine phosphorylation (pY) and serine phosphorylation (pSer307), insulin receptor (IR) tyrosine phosphorylation, and total protein levels were examined using either immunoprecipitation (IP) followed by immunoblotting (IB) or direct immunoblotting. (B) Fao cells were treated with sulindac sulfide (SS: 0, 7.5, 30, and 60 μM) for 45 minutes with or without an additional hour of exposure to 300 nM thapsigargin (Thap). IRS-1 serine phosphorylation and total IRS-1 protein levels were examined as described above.
To investigate whether ER stress interferes with insulin action, we pretreated Fao liver cells with tunicamycin and thapsigargin, agents commonly used to induce ER stress. […] IRS-1 is a substrate for insulin receptor tyrosine kinase and serine phosphorylation of IRS-1, particularly mediated by JNK, reduces insulin receptor signaling (Hirosumi et al., Nature 420:333 (2002); incorporated herein by reference).
Cells: Rat Fao liver cells were cultured with RPMI 1640 (Gibco, Grand Island, N.Y.) containing 10% fetal bovine serum (FBS). […]

The mark [6] stands for this setting: FIG. 7, animals with insulin resistance and type 2 diabetes, 1 g/kg/day IP.

Consider `O=C(O)CCCc1ccccc1` [PBA, 4-phenyl butyric acid], for which, in the experiment on ob/ob mice [1] (FIGS. 4 and 5), the blood glucose result is “effective in reducing blood glucose” and the insulin sensitivity result was “increasing insulin sensitivity”. For the same compound, in the experiment on ob/ob mice [1] (oral route 500 mg/kg/day in two divided doses, 20 days), the blood glucose levels result was “lowers blood glucose levels”. In addition, the “insulin sensitivity in vivo” value in the experiment with ob/ob mice [1] (oral route 500 mg/kg/day, ITT at 15th day) is “increases insulin sensitivity”. The blood glucose levels entry with ob/ob mice [1] (parenteral (intraperitoneal) 1 g/kg/day in three divided doses, 7 days) is recorded as “lowers blood glucose levels”. In the experiment with ob/ob mice [1] (parenteral (intraperitoneal) 1 g/kg/day, ITT on 7th day), the “insulin sensitivity in vivo” value was “increases insulin sensitivity”. In experiment [2], the “serine phosphorylation of Akt” value was “increased”; the “tyrosine phosphorylation of insulin receptor, insulin substrate 1-IRS-1 and IRS-1” value is on record as “increased”; the “insulin (receptor) signaling” value is recorded as “regulate insulin receptor signaling”. For the same compound, in the experiment on ER stress, the “activation of JNK” value was “reduced”, the “phosphorylation of IRE-1α” value is “reduced”, the “phosphorylation of PERK” value was “reduced” and the ER stress entry is “regulate ER stress in animals; also recorded: reduce ER stress”. In the experiment on JNK, the “JNK activity in liver tissue” value is “normalization of JNK activity”.
Turning to trimethylamine N-oxide [TMAO], the glucose levels result with ob/ob mice [3] (setting [6]) is “lowering”. Also, the anti-diabetic effect entry with ob/ob mice [3] (FIG. 7, ob/ob mice, 1 g/kg/day IP) was “act as an anti-diabetic agent in vivo; also recorded: anti-diabetic effect”. Also, in the experiment with ob/ob mice [3] (animals with insulin resistance and type 2 diabetes, 1 g/kg/day IP), the insulin levels entry is “lowering”. For the same compound, in the experiment on ER stress, the ER stress result is reported as “reduce ER stress”.
For the compound `O=C([O-])CCCc1ccccc1.[Na+]` [sodium 4-phenylbutyrate], in the experiment on ob/ob mice [4], the blood glucose entry is listed as “did not have any effect on blood glucose”.
With `CN(C)C(=N)N=C(N)N` [metformin], the blood glucose entry in the experiment with ob/ob mice [4] is recorded as “did not have any effect on blood glucose”.
As for `C[C@H](CCC(=O)NCCS(=O)(=O)O)[C@H]1CC[C@H]2[C@@H]3[C@@H](O)C[C@@H]4C[C@H](O)CC[C@]4(C)[C@H]3CC[C@]12C` [TUDCA, tauroursodeoxycholic acid], the insulin sensitivity entry in the experiment on ob/ob mice [3] (FIG. 7) is reported as “increase insulin sensitivity”. In addition, the glucose levels result in the experiment on ob/ob mice [3] (setting [6]) is on record as “reduce blood glucose levels”. Moreover, in experiment [2], the “serine phosphorylation of Akt” value was “increased”; the “tyrosine phosphorylation of insulin receptor, insulin substrate 1-IRS-1 and IRS-1” value is “increased”; the “insulin (receptor) signaling” value is “regulate insulin receptor signaling”. In the experiment with ER stress, the “activation of JNK” value is given as “reduced”, the “phosphorylation of IRE-1α” value is “reduced”, the “phosphorylation of PERK” value is on record as “reduced” and the ER stress result is recorded as “regulate ER stress in animals; also recorded: reduce ER stress”. Also, the diabetes entry in the experiment with ob/ob mice [5] (500 mg/kg once a day i.p.) was “reverses diabetes”. In addition, the blood glucose levels result in the experiment on ob/ob mice [5] (FIG. 6, 500 mg/kg once a day i.p.) is “reduce blood glucose levels”. The insulin sensitivity entry in the experiment with ob/ob mice [5] (FIG. 6, 500 mg/kg once a day i.p., 500 mg/kg) is listed as “increases insulin sensitivity”.
`C/C=C(/C)C(=O)O[C@H]1C(C)=C2[C@H]([C@@H]1OC(=O)CCCCCCC)[C@@](C)(OC(C)=O)C[C@H](OC(=O)CCC)[C@@]1(O)[C@H]2OC(=O)[C@@]1(C)O` [thapsigargin]: in the experiment with Fao liver cells, the “insulin receptor signaling (as for tunicamycin)” value was “Similar, results were also obtained”.
